Experiment [1] addresses T1, interaction between GMPPNP-bound recombinant K-Ras4B G12C mutant protein and cRAF RAS-binding domain (cRAF-RBD) (Homo sapiens, UniProt P01116, G12C).
T1 construct: His-tag (N)
The experiment can be described thus: Inhibitory activity on interaction between KRAS G12C and cRAF (Alpha technology). The gist of the method: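 His-tagged K-Ras4B G12C (aa 1-169), GMPPNP-loaded, preincubated with compound 1 h at 25° C in pH 7.5 Tris buffer with MgCl2, TCEP, Tween 20. cRAF-RBD (aa 50-132) and Alpha reagents then added for 1.5 h; Alpha signal normalised to DMSO (0%) and GDP-bound KRAS (100%); IC50 from dose titration.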

The subject of the next experiment is MIA PaCa-2 cells. Description: Growth inhibition activity on KRAS-G12C mutant cell line (CellTiter-Glo 3D). It counts as cell-based, human. The settings on record: MIA PaCa-2, 3-day culture with compound. An outline of the steps:
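MIA PaCa-2 cells in RPMI1640 with 10% FBS, U-bottom wells, cultured 1 day before compound (0.2% DMSO final), then 3 days at 37 °C, 5% CO2. Viability by CellTiter-Glo 3D luminescence; growth inhibition versus untreated wells gives IC50 (nM).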
(In general: In ATP-based viability assays light output follows the ATP content of the culture.)

Setting [2] is: GMPPNP-bound KRAS G12C incubated with compound 25° C. 1 hour, Table 2-1, read-out: IC50.
[3] abbreviates: Homo sapiens, MIA PaCa-2, 72 h, Table 3-1.
Where [4] appears, read: IC50, GMPPNP-bound KRAS G12C incubated with compound 25° C. 1 hour, Table 2.

Each structure is given as a SMILES string. pIC50: −log10 of the molar value. Where two headings read alike, the source gives them in different places.

In general, pIC50 refers to −log10 of the IC50, conventionally taken in molar units.

T1 sequence (P01116 with tags, fused parts or gaps isoform P01116-2 G12C): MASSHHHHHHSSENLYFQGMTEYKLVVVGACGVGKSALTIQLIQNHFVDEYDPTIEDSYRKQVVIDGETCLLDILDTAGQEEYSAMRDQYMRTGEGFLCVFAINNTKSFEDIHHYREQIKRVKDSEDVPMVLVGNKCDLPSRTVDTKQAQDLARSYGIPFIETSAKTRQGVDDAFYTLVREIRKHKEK

With `CN1CCc2nc(C(=O)c3cc(F)c(NC(=O)C=CCNC4(C)COC4)c(F)c3)n3cccc(c23)-c2c(C(F)(F)F)cc3c(ncn3C)c21` [Example 157, (E)-N-(4-(8,11-dimethyl-6-(trifluoromethyl)-8,11,12,13-tetrahydro-1,2a,8,10,11-pentaaza-cycloocta[1,2,3-cd:5,4-e′]-diindene-2-carbonyl)-2,6-difluorophenyl)-4-((3-methyloxetan-3-yl)-amino)but-2-enamide], the pIC50 is 7.17 in experiment [1] (setting [2]) and 7.21 with MIA PaCa-2 cells (setting [3]).

Take `Cc1cc2c(nc(C)n2C)c2c1-c1cccc3c(C(=O)c4cc(F)c(NC(=O)/C=C/CN5[C@@H]6CC[C@H]5[C@H](O)C6)c(F)c4)cn(c13)CCN2C` (racemic) [Example 144]: the pIC50 in experiment [1] (IC50, GMPPNP-bound KRAS G12C incubated with compound 25° C. 1 hour, Table 2-1) was 7.65; in the experiment with MIA PaCa-2 cells (setting [3]), 7.52.

Turning to `Cn1cnc2c3c(c(C(F)(F)F)cc21)-c1cccn2c(C(=O)c4cc(F)c(NC(=O)/C=C/CN5C[C@@H]6C[C@H]5CO6)c(F)c4)cc(c12)CCO3` [Example 189, (E)-4-((1S,4S)-2-oxa-5-azabicyclo[2.2.1]heptan-5-yl)-N-(2,6-difluoro-4-(9-methyl-7-(trifluoro-methyl)-13,14-dihydro-9H-imidazo[4″,5″:5′,6′]-benzo[1′,2′:2,3]oxocino-[4,5,6-hi]indolizine-2-carbonyl)phenyl)but-2-enamide], the pIC50 in experiment [1] (setting [2]) was 7.82; in the experiment with MIA PaCa-2 cells (setting [3]), 8.21.

`COCc1nc2c3c(c(OC)cc2n1C)-c1cccn2c(C(=O)c4cc(F)c(NC(=O)/C=C/CNC5(C)COC5)c(F)c4)cc(c12)CCN3C` (single isomer, unassigned) [Example 170, (E)-N-(2,6-difluoro-4-(7-methoxy-10-(methoxy-methyl)-9,12-dimethyl-9,12,13,14-tetrahydro-imidazo[4″,5″:5′,6′]benzo-[1′,2′:2,3]azocino[4,5,6-hi]indolizine-2-carbonyl)-phenyl)-4-((3-methyl-oxetan-3-yl)amino)but-2-enamide]: the pIC50 is 7.85 in experiment [1] (setting [2]) and 7.32 with MIA PaCa-2 cells (setting [3]).

Consider `CO[C@H]1CC[C@H](NC/C=C/C(=O)Nc2c(F)cc(C(=O)c3cn4c5c(cccc35)-c3c(C)cc5c(nc(C)n5C)c3OCCC4)cc2F)CC1` (single isomer, unassigned) [Example 15-1, (E)-N-(2,6-difluoro-4-(6,8,9-trimethyl-13,14-dihydro-8H,12H-imidazo[4″,5″:3′,4′]benzo[1′,2″:8,9][1,5]oxazonino[7,6,5-hi]indole-2-carbonyl)phenyl)-4-(((1r,4r)-4-methoxycyclohexyl)amino)but-2-enamide], for which the figures for the pIC50 (in experiment [1] (setting [4]); in the experiment on MIA PaCa-2 cells (Table 3)) were 5.41 and 5.57, respectively.

On to `CO[C@H]1CC[C@H](NC/C=C/C(=O)Nc2c(F)cc(C(=O)c3cn4c5c(cccc35)-c3c(C)cc5c(nc(C)n5C)c3OC[C@H](C)C4)cc2F)CC1` (single isomer, unassigned) [Example 23], for which the pIC50 in experiment [1] (setting [4]) was 7.72; in the experiment with MIA PaCa-2 cells (Table 3), 7.89.

As for `CO[C@H]1CC[C@H](NC/C=C/C(=O)Nc2c(F)cc(C(=O)c3cn4c5c(cccc35)-c3c(F)cccc3OCC4)cc2F)CC1` [Example 7], the pIC50 in experiment [1] (setting [4]) was 6.08; in the experiment with MIA PaCa-2 cells (Homo sapiens, MIA PaCa-2, 72 h, Table 3), 5.96.

`Cn1cnc2c3c(c(C(F)(F)F)cc21)-c1cccn2c(C(=O)c4cc(F)c(NC(=O)/C=C/CN5C[C@H]6C[C@@H]5CO6)c(F)c4)cc(c12)CCO3` [Example 190, (E)-4-((1R,4R)-2-oxa-5-azabicyclo[2.2.1]heptan-5-yl)-N-(2,6-difluoro-4-(9-methyl-7-(trifluoro-methyl)-13,14-dihydro-9H-imidazo[4″,5″:5′,6′]-benzo[1′,2′:2,3]oxocino-[4,5,6-hi]indolizine-2-carbonyl)phenyl)but-2-enamide]: the pIC50 in experiment [1] (setting [2]) is 7.99; in the experiment on MIA PaCa-2 cells (setting [3]), 8.04.
